System: K24384-001-R-PDC complex spheroids, viability
Assay: Anticancer human tumor K24384-001-R-PDC patient-derived pancreatic adenocarcinoma cell line growth inhibition [GQUAD]
Details: for IC50: curve of first compound; for viability, T/C: stronger effect = lower value
Procedure, shortened: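 Viability of tumor cells grown as complex spheroids with endothelial and stromal cells, exposed to drug combinations. Top concentration at or near clinical Cmax (else 10 microM), diluted in half-log increments.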

[1] = second compound 0.0316 µM, first compound 0.000999 µM
[2] = second compound 0.0316 µM, first compound 0.00316 µM
[3] = second compound 0.0316 µM, first compound 0.00999 µM
[4] = second compound 0.0316 µM, first compound 0.0316 µM
[5] = second compound 0.0316 µM, first compound 0.0999 µM
[6] = second compound 0.0316 µM, first compound 0.316 µM
[7] = second compound 0.1 µM, first compound 0.000999 µM
[8] = second compound 0.1 µM, first compound 0.00316 µM
[9] = second compound 0.1 µM, first compound 0.00999 µM
[10] = second compound 0.1 µM, first compound 0.0316 µM
[11] = second compound 0.1 µM, first compound 0.0999 µM
[12] = second compound 0.1 µM, first compound 0.316 µM
[13] = second compound 0.316 µM, first compound 0.000999 µM
[14] = second compound 0.316 µM, first compound 0.00316 µM
[15] = second compound 0.316 µM, first compound 0.00999 µM
[16] = second compound 0.316 µM, first compound 0.0316 µM
[17] = second compound 0.316 µM, first compound 0.0999 µM
[18] = second compound 0.316 µM, first compound 0.316 µM
[19] = second compound 1 µM, first compound 0.000999 µM
[20] = second compound 1 µM, first compound 0.00316 µM
[21] = second compound 1 µM, first compound 0.00999 µM
[22] = second compound 1 µM, first compound 0.0316 µM
[23] = second compound 1 µM, first compound 0.0999 µM
[24] = second compound 1 µM, first compound 0.316 µM
[25] = second compound 3.16 µM, first compound 0.000999 µM
[26] = second compound 3.16 µM, first compound 0.00316 µM
[27] = second compound 3.16 µM, first compound 0.00999 µM
[28] = second compound 3.16 µM, first compound 0.0316 µM
[29] = second compound 3.16 µM, first compound 0.0999 µM
[30] = second compound 3.16 µM, first compound 0.316 µM
[31] = second compound 10 µM, first compound 0.000999 µM
[32] = second compound 10 µM, first compound 0.00316 µM
[33] = second compound 10 µM, first compound 0.00999 µM
[34] = second compound 10 µM, first compound 0.0316 µM
[35] = second compound 10 µM, first compound 0.0999 µM
[36] = second compound 10 µM, first compound 0.316 µM
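Note: spheroids exposed to compounds for seven days.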

CC[C@@]1(O)C(=O)OCc2c1cc1n(c2=O)Cc2cc3c(CN(C)C)c(O)ccc3nc2-1 + Cc1cnc(CNC(=O)c2c(=O)c3ccc(N4CCCN(C)CC4)nc3n3c2sc2ccccc23)cn1
IC50 (second compound 0.0316 µM): > 316 nM
IC50 (second compound 0.1 µM): 214 nM
IC50 (second compound 0.316 µM): 137 nM
IC50 (second compound 1 µM): < 0.999 nM
IC50 (second compound 3.16 µM): < 0.999 nM
IC50 (second compound 10 µM): < 0.999 nM
viability, T/C [1]: 96.3%
viability, T/C [2]: 71.1%
viability, T/C [3]: 105%
viability, T/C [4]: 64.1%
viability, T/C [5]: 58.5%
viability, T/C [6]: 44.1%
viability, T/C [7]: 64.1%
viability, T/C [8]: 69%
viability, T/C [9]: 64.8%
viability, T/C [10]: 58%
viability, T/C [11]: 56.5%
viability, T/C [12]: 47.1%
viability, T/C [13]: 56.1%
viability, T/C [14]: 55.2%
viability, T/C [15]: 47.8%
viability, T/C [16]: 49.9%
viability, T/C [17]: 60.3%
viability, T/C [18]: 39.8%
viability, T/C [19]: 40.7%
viability, T/C [20]: 51.3%
viability, T/C [21]: 36.5%
viability, T/C [22]: 42.7%
viability, T/C [23]: 46%
viability, T/C [24]: 37.6%
viability, T/C [25]: 34.8%
viability, T/C [26]: 39.1%
viability, T/C [27]: 34.3%
viability, T/C [28]: 39.6%
viability, T/C [29]: 40.5%
viability, T/C [30]: 30%
viability, T/C [31]: 34.1%
viability, T/C [32]: 22.9%
viability, T/C [33]: 36.3%
viability, T/C [34]: 38.4%
viability, T/C [35]: 21.2%
viability, T/C [36]: 0.39%

CCc1c2c(nc3ccc(O)cc13)-c1cc3c(c(=O)n1C2)COC(=O)[C@]3(O)CC + Cc1cnc(CNC(=O)c2c(=O)c3ccc(N4CCCN(C)CC4)nc3n3c2sc2ccccc23)cn1
IC50 (second compound 0.0316 µM): 9.23 nM
IC50 (second compound 0.1 µM): 8.3 nM
IC50 (second compound 0.316 µM): < 0.999 nM
IC50 (second compound 1 µM): < 0.999 nM
IC50 (second compound 3.16 µM): < 0.999 nM
IC50 (second compound 10 µM): < 0.999 nM
viability, T/C [1]: 73.2%
viability, T/C [2]: 60.8%
viability, T/C [3]: 53.2%
viability, T/C [4]: 29.8%
viability, T/C [5]: 31.9%
viability, T/C [6]: 18%
viability, T/C [7]: 50%
viability, T/C [8]: 64.9%
viability, T/C [9]: 45.7%
viability, T/C [10]: 36.7%
viability, T/C [11]: 29.3%
viability, T/C [12]: 16.1%
viability, T/C [13]: 41.4%
viability, T/C [14]: 58.4%
viability, T/C [15]: 38.2%
viability, T/C [16]: 34.8%
viability, T/C [17]: 19.9%
viability, T/C [18]: 14%
viability, T/C [19]: 38.8%
viability, T/C [20]: 41.4%
viability, T/C [21]: 31.3%
viability, T/C [22]: 23.8%
viability, T/C [23]: 18.4%
viability, T/C [24]: 6.84%
viability, T/C [25]: 37.4%
viability, T/C [26]: 43.7%
viability, T/C [27]: 28.8%
viability, T/C [28]: 20.1%
viability, T/C [29]: 8.56%
viability, T/C [30]: 0.57%
viability, T/C [31]: 29.2%
viability, T/C [32]: 14.6%
viability, T/C [33]: 13.3%
viability, T/C [34]: 0.4%
viability, T/C [35]: 0.25%
viability, T/C [36]: 0.2%

Cc1cccc(N(C)C(=O)C2C(O)CCN2c2nc(C)cc(C(F)(F)F)c2C#N)c1 (stereo not drawn) + Cc1cnc(CNC(=O)c2c(=O)c3ccc(N4CCCN(C)CC4)nc3n3c2sc2ccccc23)cn1
IC50 (second compound 0.0316 µM): > 10000 nM
IC50 (second compound 0.1 µM): > 10000 nM
IC50 (second compound 0.316 µM): 31.6 nM
IC50 (second compound 1 µM): < 31.6 nM
IC50 (second compound 3.16 µM): < 31.6 nM
IC50 (second compound 10 µM): < 31.6 nM
viability, T/C [4]: 105%
viability, T/C (second compound 0.0316 µM, first compound 0.1 µM): 81.5%
viability, T/C [6]: 86.5%
viability, T/C (second compound 0.0316 µM, first compound 1 µM): 74.2%
viability, T/C (second compound 0.0316 µM, first compound 3.16 µM): 95.6%
viability, T/C (second compound 0.0316 µM, first compound 10 µM): 107%
viability, T/C [10]: 70%
viability, T/C (second compound 0.1 µM, first compound 0.1 µM): 73.8%
viability, T/C [12]: 57.7%
viability, T/C (second compound 0.1 µM, first compound 1 µM): 69.6%
viability, T/C (second compound 0.1 µM, first compound 3.16 µM): 72.9%
viability, T/C (second compound 0.1 µM, first compound 10 µM): 71.6%
viability, T/C [16]: 53.3%
viability, T/C (second compound 0.316 µM, first compound 0.1 µM): 56%
viability, T/C [18]: 49.2%
viability, T/C (second compound 0.316 µM, first compound 1 µM): 57.4%
viability, T/C (second compound 0.316 µM, first compound 3.16 µM): 74.9%
viability, T/C (second compound 0.316 µM, first compound 10 µM): 55.8%
viability, T/C [22]: 44.1%
viability, T/C (second compound 1 µM, first compound 0.1 µM): 44.4%
viability, T/C [24]: 50.5%
viability, T/C (second compound 1 µM, first compound 1 µM): 44.6%
viability, T/C (second compound 1 µM, first compound 3.16 µM): 57.5%
viability, T/C (second compound 1 µM, first compound 10 µM): 41.7%
viability, T/C [28]: 38.1%
viability, T/C (second compound 3.16 µM, first compound 0.1 µM): 42%
viability, T/C [30]: 41.3%
viability, T/C (second compound 3.16 µM, first compound 1 µM): 49.3%
viability, T/C (second compound 3.16 µM, first compound 3.16 µM): 39.9%
viability, T/C (second compound 3.16 µM, first compound 10 µM): 41.5%
viability, T/C [34]: 40.6%
viability, T/C (second compound 10 µM, first compound 0.1 µM): 37.4%
viability, T/C [36]: 43.3%
viability, T/C (second compound 10 µM, first compound 1 µM): 44.4%
viability, T/C (second compound 10 µM, first compound 3.16 µM): 26.2%
viability, T/C (second compound 10 µM, first compound 10 µM): 36.4%

Cn1ncnc1[C@H]1c2n[nH]c(=O)c3cc(F)cc(c23)N[C@@H]1c1ccc(F)cc1 + Cc1cnc(CNC(=O)c2c(=O)c3ccc(N4CCCN(C)CC4)nc3n3c2sc2ccccc23)cn1
IC50 (second compound 0.0316 µM): > 316 nM
IC50 (second compound 0.1 µM): > 316 nM
IC50 (second compound 0.316 µM): > 316 nM
IC50 (second compound 1 µM): < 0.999 nM
IC50 (second compound 3.16 µM): < 0.999 nM
IC50 (second compound 10 µM): < 0.999 nM
viability, T/C [1]: 93.1%
viability, T/C [2]: 80.8%
viability, T/C [3]: 92.5%
viability, T/C [4]: 81.9%
viability, T/C [5]: 87.2%
viability, T/C [6]: 105%
viability, T/C [7]: 69.1%
viability, T/C [8]: 76%
viability, T/C [9]: 53.6%
viability, T/C [10]: 68.6%
viability, T/C [11]: 72.8%
viability, T/C [12]: 86.9%
viability, T/C [13]: 52.5%
viability, T/C [14]: 63.1%
viability, T/C [15]: 50.6%
viability, T/C [16]: 50.5%
viability, T/C [17]: 53.5%
viability, T/C [18]: 58.1%
viability, T/C [19]: 44.6%
viability, T/C [20]: 50.3%
viability, T/C [21]: 43.6%
viability, T/C [22]: 48.6%
viability, T/C [23]: 62.6%
viability, T/C [24]: 42%
viability, T/C [25]: 43.4%
viability, T/C [26]: 45.2%
viability, T/C [27]: 43.5%
viability, T/C [28]: 44.7%
viability, T/C [29]: 47.8%
viability, T/C [30]: 39%
viability, T/C [31]: 42.8%
viability, T/C [32]: 40.2%
viability, T/C [33]: 37.7%
viability, T/C [34]: 46.3%
viability, T/C [35]: 26.6%
viability, T/C [36]: 32.8%
